From patent publication US7348400B2 (priority 2001, dated 2008)
“Also recorded” adds a separate entry of the source.

Legend:
[1] = test system: nAChR; type: binding, bovine
[2] = test system: rats with chronic constriction injury; conditions: rat, in vivo
[3] = test system: unmyelinated primary afferent sensory nerves; conditions: rat, in vivo
[4] = test system: injured nerve (sensory nerves); conditions: rat, in vivo
[5] = in vivo; cited from earlier work
[6] = test system: neuronal nAChR; type: cell-based, bovine
[7] = rat, in vivo
[8] = rat, in vivo; remark: listed apart in the source

GCCSD4 -HypRCNYDHPgammacarboxy-GluIC-NH2 [Vc1.1ptm]
displacement of 3H-epibatidine binding [1]: displaced the first component, but did not significantly displace the second component | long-term effectiveness in inhibiting neuropathic pain [2]: without effect; also recorded: but not Vc1.1ptm was effective | inhibition of sensory nerve activity (comparison) [3]: less effective than Vc1.1 | recovery of vascular response to substance P compared to control [4]: 85%

CSCC[C@@H]1NC(=O)[C@H](CC(C)C)NC(=O)[C@H](CCCNC(=N)N)NC(=O)[C@H](CO)NC(=O)[C@@H]2CSSC[C@@H]3NC(=O)[C@H](CO)NC(=O)CNC(=O)[C@H]([C@@H](C)O)NC(=O)[C@H](CSSC[C@H](N)C(=O)N[C@@H](CCCCN)C(=O)NCC(=O)N[C@@H](CCCCN)C(=O)NCC(=O)N[C@@H](C)C(=O)N[C@@H](CCCCN)C(=O)N2)NC(=O)[C@H](CSSC[C@@H](C(N)=O)NC(=O)[C@H](CCCCN)NC(=O)CNC(=O)[C@H](CO)NC(=O)[C@H](CCCNC(=N)N)NC3=O)NC(=O)[C@H](CC(=O)O)NC(=O)[C@H](Cc2ccc(O)cc2)NC1=O [MVIIA]
inhibition of the vascular response to LFES of sensory nerves [3]: significant inhibition; also recorded: more effective | recovery of vascular response to substance P compared to control [4]: 54% | potency relative to morphine [5]: 1000 times

G C C S H P A C Y A N N Q D Y C-NH2 [An1.1]
inhibition of the neuronal nicotinic response in cultured BCCs (comparison) [6]: not nearly as inhibitory as Vc1.1 | nature of the inhibition of nicotine-evoked catecholamine release [6]: competitive inhibitor | protection against nicotinic receptor desensitisation [6]: protects against nicotinic receptor desensitisation

CC[C@H](C)[C@@H]1NC(=O)[C@H](CCC(=O)O)NC(=O)[C@@H]2CCCN2C(=O)[C@H](Cc2cnc[nH]2)NC(=O)[C@H](CC(=O)O)NC(=O)[C@H](Cc2ccc(O)cc2)NC(=O)[C@H](CC(N)=O)NC(=O)[C@@H]2CSSC[C@H](NC(=O)CN)C(=O)N[C@@H](CSSC[C@@H](C(N)=O)NC1=O)C(=O)N[C@@H](CO)C(=O)N[C@@H](CC(=O)O)C(=O)N1CCC[C@H]1C(=O)N[C@@H](CCCNC(=N)N)C(=O)N2 [Vc1.1, GCCSDPRCNYDHPEIC-NH2]
effect upon systemic blood pressure [7]: no effect | adverse side-effects [8]: not observed any adverse side-effects
